We go through 13 compounds from ChEMBL document CHEMBL6177931, “Exploring diverse frontiers: Advancements of bioactive 4-aminoquinoline-based molecular hybrids in targeted therapeutics and beyond” (Eur J Med Chem, 2024).

The term IC50 denotes the midpoint of a concentration-inhibition curve. One may read the MIC as the least concentration at which growth counts as inhibited. For orientation: inhibition means the percentage by which the read-out fell short of the control.

Data set [1] is described as follows: Cytotoxicity against human L02 cells incubated for 24 hrs by MTT assay. Type of data set: toxicity, cell-based. On the technique in general: Tetrazolium assays rely on reduction of a dye to a coloured formazan, in cell work by metabolically active cells.
For the next data set, the system named is Staphylococcus aureus. The experiment in a line: Antibacterial activity against Staphylococcus aureus ATCC 8739 incubated for 24 hrs by broth microdilution method. It is filed as functional. A general note: Dilution methods test growth across graded concentrations, often in twofold steps.
Another data set concerns Escherichia coli. The experiment in a line: Antibacterial activity against Escherichia coli ATCC 29213 incubated for 24 hrs by broth microdilution method. It is filed as functional.
Another data set concerns HeLa. Put plainly: Antiproliferative activity against human HeLa cells incubated for 24 hrs by MTT assay. It is filed as functional, cell-based.
The subject of data set [2] is A549. The experiment in a line: Antiproliferative activity against human A549 cells assessed as reduction in cell viability incubated for 24 hrs by MTT assay. It is filed as functional, cell-based. The note with it: A549, 24 h.
The subject of a further data set is SGC-7901. Put plainly: Antiproliferative activity against human SGC-7901 cells incubated for 24 hrs by MTT assay. It is filed as functional, cell-based. To be noted: SGC-7901, 24 h.
Data set [3] has as its system Mycobacterium tuberculosis. Put plainly: Antitubercular activity against Mycobacterium tuberculosis H37Rv by microplate alamar blue assay. It is filed as functional. On the technique in general: Resazurin is reduced to fluorescent resorufin, in cell work by metabolically active cells.
The subject of data set [4] is A549. The experiment in a line: Cytotoxicity against human A549 cells incubated for 24 hrs by MTT assay. It is filed as functional, cell-based. To be noted: A549, 24 h.
For another data set, the system named is L02. The experiment in a line: Antiproliferative activity against human HL7702 cells incubated for 48 hrs by MTT assay. Type of data set: functional, cell-based. The note with it: L02, 48 h.
The test system of data set [5] is MGC-803. Put plainly: Antitumor activity against human MGC-803 cells xenografted in male BALB/c nude mouse assessed as suppression of tumor growth at 12 mg/kg, ip administered per 2 days relative to control. It is filed as functional.
A further data set deals with HepG2. The experiment in a line: Anticancer activity against human HepG2 cells incubated for 48 hrs by MTT assay. Type of data set: functional, cell-based. The note with it: HepG2, 48 h.
For data set [6], the system named is MGC-803. The experiment in a line: Antiproliferative activity against human MGC-803 cells incubated for 48 hrs by MTT assay. It is filed as functional, cell-based. To be noted: MGC-803, 48 h.
For a further data set, the system named is NCI-H460. The experiment in a line: Antiproliferative activity against human NCI-H460 cells incubated for 48 hrs by MTT assay. It is filed as functional, cell-based. The note with it: NCI-H460, 48 h.
The test system of a further data set is T-24. Put plainly: Antiproliferative activity against human T24 cells incubated for 48 hrs by MTT assay. Type of data set: functional, cell-based. To be noted: T-24, 48 h.
Data set [7] addresses T1, Cholinesterases; ACHE & BCHE (Homo sapiens) (UniProt P06276+P22303). Put plainly: Selectivity ratio of IC50 for inhibition of recombinant human AchE to IC50 for inhibition of human BchE. It is filed as protein assay.
Data set [8] concerns the target T1, Cholinesterases; ACHE & BCHE (Homo sapiens). The experiment in a line: Selectivity ratio of IC50 for inhibition of human BchE to IC50 for inhibition of recombinant human AchE. It is filed as protein assay.
The test system of another data set is DU-145. The experiment in a line: Cytotoxicity against human DU-145 cells. It is filed as functional, cell-based.
The subject of a further data set is MCF7. Put plainly: Cytotoxicity against human MCF7 cells. It is filed as functional, cell-based.
A short description of data set [9]: Selectivity index, ratio of IC50 for cytotoxicity against African green monkey Vero cells to IC50 for antiplasmodial activity against D-sorbitol synchronized chloroquine-resistant Plasmodium falciparum W2. It is filed as toxicity, cell-based. The note with it: read-out: Ratio IC50.
Data set [10] has as its system Mycobacterium tuberculosis. Put plainly: Antitubercular activity against Mycobacterium tuberculosis H37Rv assessed as inhibition of bacterial growth at 250 microg/ml relative to control. It is filed as functional.
Data set [11] has as its system Mycobacterium tuberculosis. The experiment in a line: Antitubercular activity against Mycobacterium tuberculosis H37Rv. It is filed as functional.
The next data set has as its system MDA-MB-231. The experiment in a line: Anticancer activity against human MDA-MB-231 cells. Type of data set: functional, cell-based.
The next data set concerns the target Acetylcholinesterase (Electrophorus electricus, UniProt O42275). Put plainly: Inhibition of electric eel AChE using […] as substrate measured after 2 mins by Ellman's reagent based spectrophotometric analysis.
The next data set deals with Cholinesterase (Equus caballus, UniProt P81908). The experiment in a line: Inhibition of equine serum BChE using […] as substrate measured after 2 mins by Ellman's reagent based spectrophotometric analysis.
Cholinesterase, sequence (P81908 whole entry): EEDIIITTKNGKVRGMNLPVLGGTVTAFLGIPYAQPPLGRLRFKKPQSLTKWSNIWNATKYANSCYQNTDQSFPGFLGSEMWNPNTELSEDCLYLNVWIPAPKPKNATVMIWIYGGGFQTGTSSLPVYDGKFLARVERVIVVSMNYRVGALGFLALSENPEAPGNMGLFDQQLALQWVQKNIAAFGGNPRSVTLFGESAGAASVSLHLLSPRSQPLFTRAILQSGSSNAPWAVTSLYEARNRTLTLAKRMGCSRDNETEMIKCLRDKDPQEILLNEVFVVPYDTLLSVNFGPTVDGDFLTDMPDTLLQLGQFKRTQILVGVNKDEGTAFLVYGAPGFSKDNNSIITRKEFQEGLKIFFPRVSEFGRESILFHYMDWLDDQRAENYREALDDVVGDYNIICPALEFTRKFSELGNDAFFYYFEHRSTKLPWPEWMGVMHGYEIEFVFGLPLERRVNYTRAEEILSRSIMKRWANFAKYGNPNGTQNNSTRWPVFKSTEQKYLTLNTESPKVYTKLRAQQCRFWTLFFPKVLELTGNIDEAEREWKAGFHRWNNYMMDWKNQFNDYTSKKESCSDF

Converted amounts (≈) assume the structure as drawn.

T1 sequence (P06276 whole entry, looked up): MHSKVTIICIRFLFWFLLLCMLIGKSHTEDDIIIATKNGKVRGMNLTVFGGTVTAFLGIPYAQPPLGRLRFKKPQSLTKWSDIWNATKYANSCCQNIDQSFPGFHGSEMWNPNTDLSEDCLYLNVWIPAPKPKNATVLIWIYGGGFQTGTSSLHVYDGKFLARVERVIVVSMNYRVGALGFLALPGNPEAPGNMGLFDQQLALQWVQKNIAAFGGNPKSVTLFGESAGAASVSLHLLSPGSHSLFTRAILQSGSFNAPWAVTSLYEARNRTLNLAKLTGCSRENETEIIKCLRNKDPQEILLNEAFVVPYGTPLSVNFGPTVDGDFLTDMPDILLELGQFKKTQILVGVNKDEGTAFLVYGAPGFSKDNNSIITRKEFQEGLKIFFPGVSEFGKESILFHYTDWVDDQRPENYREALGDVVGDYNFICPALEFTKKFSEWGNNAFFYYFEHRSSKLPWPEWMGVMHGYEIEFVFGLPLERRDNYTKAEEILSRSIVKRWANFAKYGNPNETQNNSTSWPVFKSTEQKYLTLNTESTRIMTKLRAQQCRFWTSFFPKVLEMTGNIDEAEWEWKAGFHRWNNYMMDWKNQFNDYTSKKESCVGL
T1 sequence (P22303 whole entry, looked up): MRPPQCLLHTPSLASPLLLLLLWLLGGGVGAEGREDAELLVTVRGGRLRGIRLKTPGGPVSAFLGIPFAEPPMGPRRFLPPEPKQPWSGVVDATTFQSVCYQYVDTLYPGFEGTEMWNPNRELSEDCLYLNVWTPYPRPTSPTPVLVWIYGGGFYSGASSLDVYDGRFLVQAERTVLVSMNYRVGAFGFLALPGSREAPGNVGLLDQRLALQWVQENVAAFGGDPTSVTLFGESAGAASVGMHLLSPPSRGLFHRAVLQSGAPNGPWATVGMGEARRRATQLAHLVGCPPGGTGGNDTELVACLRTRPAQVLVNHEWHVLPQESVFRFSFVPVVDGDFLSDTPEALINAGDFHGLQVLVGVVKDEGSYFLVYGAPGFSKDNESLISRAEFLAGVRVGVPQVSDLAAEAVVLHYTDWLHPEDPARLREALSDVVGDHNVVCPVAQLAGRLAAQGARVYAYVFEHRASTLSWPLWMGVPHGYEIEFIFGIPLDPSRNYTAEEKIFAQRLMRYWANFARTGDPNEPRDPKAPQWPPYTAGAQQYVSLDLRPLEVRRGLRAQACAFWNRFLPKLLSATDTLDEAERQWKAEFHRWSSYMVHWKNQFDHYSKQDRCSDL
Acetylcholinesterase, sequence (O42275 whole entry): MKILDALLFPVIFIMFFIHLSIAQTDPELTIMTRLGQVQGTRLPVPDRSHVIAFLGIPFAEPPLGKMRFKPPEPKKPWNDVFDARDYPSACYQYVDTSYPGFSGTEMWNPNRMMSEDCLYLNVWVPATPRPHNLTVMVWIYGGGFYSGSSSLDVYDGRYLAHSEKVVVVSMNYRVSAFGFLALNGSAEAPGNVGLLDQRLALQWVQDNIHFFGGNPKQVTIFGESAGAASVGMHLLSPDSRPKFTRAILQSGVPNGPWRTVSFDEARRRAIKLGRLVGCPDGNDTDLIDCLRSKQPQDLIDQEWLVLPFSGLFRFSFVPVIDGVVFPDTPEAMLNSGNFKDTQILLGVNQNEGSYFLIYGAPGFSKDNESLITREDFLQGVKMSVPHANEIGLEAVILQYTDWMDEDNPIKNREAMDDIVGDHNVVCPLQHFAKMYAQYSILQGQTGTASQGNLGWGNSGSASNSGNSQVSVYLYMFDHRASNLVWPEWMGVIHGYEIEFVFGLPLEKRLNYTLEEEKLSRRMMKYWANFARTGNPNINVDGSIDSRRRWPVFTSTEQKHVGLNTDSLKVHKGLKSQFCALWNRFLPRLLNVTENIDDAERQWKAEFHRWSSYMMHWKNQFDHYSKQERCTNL

In data set [1], `CCC[n+]1cc(C(=O)OCC)c(Nc2ccc(OCc3ccccc3)cc2)c2cc3c(cc21)OCO3` displayed a concentration for half-maximal inhibition (IC50) at 24 h of 54.5 µM. Besides, the MIC against Staphylococcus aureus and in the data set on Escherichia coli was 3.12 µM each time. For the same compound, the IC50 in the data set on HeLa is 7.62 µM; in the data set with A549 [2], 5.18 µM; in the data set on SGC-7901, 17.6 µM.

`COc1ccc(/C=C/C(=N/NC(N)=O)c2ccc(Nc3ccnc4cc(Cl)ccc34)cc2)cc1OC` yielded an MIC in data set [3] of 1.56 µM (≈ 0.783 µg/mL).

In the data set on A549 [4], `Cc1cccc2c(Nc3cccc4ncccc34)cc(Cl)nc12` yielded an IC50 of 29.4 µM.

Take `CN(C)CCCNc1c(-c2nc3ccccc3s2)cnc2ccccc12`: the IC50 in the data set on L02 turned out to be 10.9 µM; in the data set with HepG2 it was 4.88 µM; in the data set on MGC-803 [6] it was 2.2 µM; in the data set on NCI-H460 it was 3.22 µM; with T-24, 3.17 µM. Also, the Activity in the data set on MGC-803 [5] is recorded as 42.4%.

As to `CC(CCNCCC12CC3CC(CC(C3)C1)C2)Nc1ccnc2cc(Cl)ccc12` (stereo unspecified), the Ratio IC50 in data set [7] came to 10.

For the compound `Clc1ccc2c(Nc3cccc4c(NCCC56CC7CC(CC(C7)C5)C6)cccc34)ccnc2c1`, the Ratio IC50 in data set [8] is 5.8.

As for `CC1(C)CC[C@]2(C(=O)O)CC[C@]3(C)C(=CC[C@@H]4[C@@]5(C)CC[C@H](O)C(C)(C)[C@@H]5CC[C@]43C)[C@@H]2C1` [OLEANOLIC_ACID], the IC50 with DU-145 and in the data set on MCF7 was above 200 µM in each case.

Take `CCN(CC)c1ccc2c(c1)C(=O)N(CCC(=O)NCCNc1ccnc3cc(Cl)ccc13)C2=O`: the selectivity ratio in data set [9] is above 2000.

With `O=C1c2ccc(N3CCN(CCO)CC3)cc2C(=O)N1CCCNc1ccnc2cc(Cl)ccc12`, the selectivity ratio in data set [9] is above 4200.

Consider `O=C(NNc1ccnc2cc(Cl)ccc12)c1cc(-c2ccccc2)nc2ccccc12`, for which, in [10], the inhibition at 250 µg/mL is 99%. This compound came in with a minimum inhibitory concentration (MIC) in [11] of 38 µM (≈ 16.1 µg/mL).

Regarding `NC(=O)N/N=C(/C=C/c1ccc(Br)cc1)c1ccc(Nc2ccnc3cc(Cl)ccc23)cc1`, the MIC in [3] turned out to be 1.56 µM (≈ 0.812 µg/mL).

For the compound `C[C@H]1[C@H](C)CC[C@]2(C(=O)OCCOCCNc3ccnc4cc(Cl)ccc34)CC[C@]3(C)C(=CC[C@@H]4[C@@]5(C)CC[C@H](O)C(C)(C)[C@@H]5CC[C@]43C)[C@H]12`, the IC50 in the data set with MDA-MB-231 amounted to 85.6 µg/mL (≈ 121 µM).

With `COc1cc(/C=C/C(=O)NCCNc2cc(C)nc3ccccc23)ccc1OCc1ccc(Br)cc1`, the IC50 against Acetylcholinesterase worked out at 0.62 µM; against Cholinesterase it was 1.18 µM.
